49 compounds from patent US20240208968A1, “ALPHA V BETA 6 AND ALPHA V BETA 1 INTEGRIN INHIBITORS AND USES THEREOF” (DiCE Molecules SV, Inc., priority 2021, published 2024) can be followed below.

Assay [1] deals with αvβ1 (Homo sapiens, UniProt P05556+P06756). As to the kind of experiment: Solid Phase Integrin αvβ1 Assay. The format is binding. The essentials: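 Wells coated with 1 µg/mL recombinant TGFb1-LAP and blocked with 2% BSA/TBST, 1 mM MnCl2; αvβ1 (added at 0.2 µg/mL) and compound incubated 90 min at room temperature. Bound integrin detected by streptavidin-HRP (20 min) and TMB after Mn-containing washes; IC50 by four-parameter logistic fit.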
αvβ1, sequence (P06756 31-992 limits assumed): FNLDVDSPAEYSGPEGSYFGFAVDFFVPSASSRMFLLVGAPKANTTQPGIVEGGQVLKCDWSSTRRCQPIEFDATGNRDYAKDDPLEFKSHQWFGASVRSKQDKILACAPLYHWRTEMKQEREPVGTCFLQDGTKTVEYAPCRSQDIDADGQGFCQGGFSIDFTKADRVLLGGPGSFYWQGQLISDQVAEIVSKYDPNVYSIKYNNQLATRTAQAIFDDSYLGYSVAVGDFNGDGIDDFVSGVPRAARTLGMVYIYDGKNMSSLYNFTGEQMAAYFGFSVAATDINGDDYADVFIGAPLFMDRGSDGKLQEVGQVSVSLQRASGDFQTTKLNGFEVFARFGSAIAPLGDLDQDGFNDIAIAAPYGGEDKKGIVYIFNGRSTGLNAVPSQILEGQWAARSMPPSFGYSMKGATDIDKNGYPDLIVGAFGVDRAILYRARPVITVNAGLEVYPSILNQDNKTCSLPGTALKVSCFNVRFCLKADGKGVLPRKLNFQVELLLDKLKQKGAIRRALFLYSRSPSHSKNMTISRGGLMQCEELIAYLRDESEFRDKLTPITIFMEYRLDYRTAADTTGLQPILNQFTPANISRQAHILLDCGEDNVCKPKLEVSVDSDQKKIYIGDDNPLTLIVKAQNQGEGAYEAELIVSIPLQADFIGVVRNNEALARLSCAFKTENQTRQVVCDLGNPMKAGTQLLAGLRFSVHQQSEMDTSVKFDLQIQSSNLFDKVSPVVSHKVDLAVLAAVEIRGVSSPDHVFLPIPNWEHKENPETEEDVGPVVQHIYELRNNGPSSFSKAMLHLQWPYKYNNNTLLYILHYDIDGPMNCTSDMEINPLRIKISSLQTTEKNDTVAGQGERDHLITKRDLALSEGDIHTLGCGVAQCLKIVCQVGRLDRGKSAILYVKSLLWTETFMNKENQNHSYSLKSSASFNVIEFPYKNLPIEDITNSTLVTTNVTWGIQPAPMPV
αvβ1, sequence (P05556 21-728 limits assumed): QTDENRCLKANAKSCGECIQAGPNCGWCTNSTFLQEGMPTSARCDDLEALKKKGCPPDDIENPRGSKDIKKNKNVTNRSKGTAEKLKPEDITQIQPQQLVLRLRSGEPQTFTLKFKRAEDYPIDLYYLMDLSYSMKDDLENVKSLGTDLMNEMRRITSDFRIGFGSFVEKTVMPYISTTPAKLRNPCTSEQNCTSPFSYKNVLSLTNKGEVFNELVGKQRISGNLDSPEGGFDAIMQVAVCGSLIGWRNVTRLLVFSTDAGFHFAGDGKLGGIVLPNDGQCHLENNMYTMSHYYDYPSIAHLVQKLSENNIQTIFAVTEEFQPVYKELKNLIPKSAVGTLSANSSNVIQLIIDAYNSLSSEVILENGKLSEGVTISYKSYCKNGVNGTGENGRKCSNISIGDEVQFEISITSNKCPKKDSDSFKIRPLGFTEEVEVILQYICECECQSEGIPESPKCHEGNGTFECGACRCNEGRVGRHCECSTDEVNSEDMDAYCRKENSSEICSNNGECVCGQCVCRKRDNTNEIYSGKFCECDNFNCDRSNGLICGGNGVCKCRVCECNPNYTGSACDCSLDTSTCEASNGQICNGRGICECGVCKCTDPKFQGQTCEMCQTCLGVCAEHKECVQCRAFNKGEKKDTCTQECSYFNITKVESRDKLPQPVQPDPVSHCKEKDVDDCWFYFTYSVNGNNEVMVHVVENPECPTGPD

Assay [2] concerns the target αvβ6 (Homo sapiens, UniProt P06756+P18564). As to the kind of experiment: Solid Phase Integrin αvβ6 Assay. Format: binding. Put shortly: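 Plates coated with 1 μg/mL recombinant TGFb1-LAP; compounds and αvβ6 (0.2 μg/mL diluted stock) incubated 1 h at room temperature in 2% BSA/TBST with 1 mM MnCl2. Bound integrin detected with streptavidin-HRP and TMB; IC50 from four-parameter logistic fits.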

The structures appear in SMILES notation.

αvβ6, sequence (P06756 31-992 limits assumed): as the sequence (P06756 31-992 limits assumed) above
αvβ6, sequence (P18564 22-707 limits assumed): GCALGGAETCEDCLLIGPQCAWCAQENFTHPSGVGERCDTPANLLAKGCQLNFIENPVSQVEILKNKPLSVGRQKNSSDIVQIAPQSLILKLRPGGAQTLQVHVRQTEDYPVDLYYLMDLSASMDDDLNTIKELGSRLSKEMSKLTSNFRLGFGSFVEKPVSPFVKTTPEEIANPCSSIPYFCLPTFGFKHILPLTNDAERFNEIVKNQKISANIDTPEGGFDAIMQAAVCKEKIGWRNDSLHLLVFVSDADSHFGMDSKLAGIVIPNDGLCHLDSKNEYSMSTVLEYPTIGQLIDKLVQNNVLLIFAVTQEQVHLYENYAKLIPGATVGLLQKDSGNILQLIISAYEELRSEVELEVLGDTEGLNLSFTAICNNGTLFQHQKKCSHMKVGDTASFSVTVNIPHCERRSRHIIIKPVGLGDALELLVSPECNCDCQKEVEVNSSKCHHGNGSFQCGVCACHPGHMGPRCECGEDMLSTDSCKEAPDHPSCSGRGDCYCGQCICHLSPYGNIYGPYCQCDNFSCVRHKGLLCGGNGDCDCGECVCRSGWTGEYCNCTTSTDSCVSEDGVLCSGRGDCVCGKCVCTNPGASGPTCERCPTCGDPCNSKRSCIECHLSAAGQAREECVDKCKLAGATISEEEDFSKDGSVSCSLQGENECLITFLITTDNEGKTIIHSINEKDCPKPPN

As usually defined, the IC50 is the concentration at which inhibition is half-maximal. Read a high IC50 as weaker potency. For `O=C(O)C[C@@H](NC(=O)[C@@H]1CCCN(CCCc2ccc3c(n2)NCCC3)C1)c1cc(F)cc(C2CC2)c1` [Compound 347], the IC50 in assay [1] and in assay [2] was below 100 nM each time.
Take `Nc1nnc(C(=O)N[C@@H](CNC(=O)[C@@H]2CCCN(CCCc3ccc4c(n3)NCCC4)C2)C(=O)O)o1` [Compound 348]: the IC50 in assay [1] and in assay [2] was below 100 nM throughout.
In the case of `O=C(O)C[C@H](O[C@@H]1CCCN(CCCc2ccc3c(n2)NCCC3)C1)c1ccccc1` [Compound 349], the IC50 in assay [1] and in assay [2] was above 1000 nM in each case.
Take `O=C(O)[C@H](CO[C@@H]1CCCN(CCCc2ccc3c(n2)NCCC3)C1)c1ccccc1` [Compound 350]: the IC50 in assay [1] and in assay [2] was above 1000 nM each time.
Take `O=C(O)C[C@@H](O[C@@H]1CCCN(CCCc2ccc3c(n2)NCCC3)C1)c1ccccc1` [Compound 351]: the IC50 in assay [1] and in assay [2] was above 1000 nM throughout.
Turning to `O=C(O)[C@@H](CO[C@@H]1CCCN(CCCc2ccc3c(n2)NCCC3)C1)c1ccccc1` [Compound 352], the IC50 in assay [1] and in assay [2] was above 1000 nM throughout.
With `O=C(O)C[C@H](CO[C@@H]1CCCN(CCc2ccc3c(n2)NCCC3)C1)c1ccccc1` [Compound 353], the figures for the IC50 in assay [1] and in assay [2] were above 1000 nM and 100 to 1000 nM, respectively.
The corresponding values for `O=C(O)C[C@@H](CO[C@@H]1CCCN(CCc2ccc3c(n2)NCCC3)C1)c1ccccc1` [Compound 354] are above 1000 nM and above 1000 nM.
As to `O=C(O)C[C@@H](CO[C@@H]1CCCN(Cc2ccc3c(n2)NCCC3)C1)c1ccccc1` [Compound 355], the IC50 is 100 to 1000 nM in assay [1] and above 1000 nM in assay [2].
In the case of `O=C(O)C[C@H](CO[C@@H]1CCCN(Cc2ccc3c(n2)NCCC3)C1)c1ccccc1` [Compound 356], the IC50 in assay [1] was 100 to 1000 nM; in assay [2], above 1000 nM.
As for `O=C(O)C[C@H](CO[C@@H]1CCCN(CCCCc2ccc3c(n2)NCCC3)C1)c1ccccc1` [Compound 357], the IC50 in assay [1] and in assay [2] was 100 to 1000 nM in each case.
On to `O=C(O)C[C@@H](CO[C@@H]1CCCN(CCCCc2ccc3c(n2)NCCC3)C1)c1ccccc1` [Compound 358], for which the IC50 in assay [1] is below 100 nM; in assay [2], above 1000 nM.
Consider `O=C(N[C@@H](CNC(=O)[C@@H]1CCCN(CCCc2ccc3c(n2)NCCC3)C1)C(=O)O)c1c(F)cc(N2CCOC[C@@H]2C(F)(F)F)cc1F` [Compound 359], for which the IC50 in assay [1] and in assay [2] was below 100 nM throughout.
Turning to `O=C(NC[C@H](Nc1ccc(-c2ccccc2)nc1)C(=O)O)[C@@H]1CCCN(CCCc2ccc3c(n2)NCCC3)C1` [Compound 360], the IC50 in assay [1] and in assay [2] was below 100 nM throughout.
`O=C(NC[C@H](Nc1cncc(-c2ccccc2)c1)C(=O)O)[C@@H]1CCCN(CCCc2ccc3c(n2)NCCC3)C1` [Compound 361]: the IC50 in assay [1] and in assay [2] was below 100 nM each time.
Take `O=C(N[C@@H](CNC(=O)[C@@H]1CCCN(CCCc2ccc3c(n2)NCCC3)C1)C(=O)O)c1c(Cl)cccc1Cl` [Compound 362]: the half-maximal inhibitory concentration (IC50) in assay [1] and in assay [2] was below 100 nM in each case.
For the compound `O=C(N[C@@H](CNC(=O)[C@@H]1CCCN(CCCc2ccc3c(n2)NCCC3)C1)C(=O)O)c1cc(Cl)cc(Cl)c1` [Compound 363], the IC50 in assay [1] and in assay [2] was below 100 nM throughout.
For `O=C(N[C@@H](CNC(=O)[C@@H]1CCCN(CCCc2ccc3c(n2)NCCC3)C1)C(=O)O)c1cc(Cl)ccc1Cl` [Compound 364], the IC50 in assay [1] and in assay [2] was below 100 nM each time.
Consider `O=C(N[C@@H](CNC(=O)[C@@H]1CCCN(CCCc2ccc3c(n2)NCCC3)C1)C(=O)O)c1cccc(Cl)c1Cl` [Compound 365], for which the concentration for half-maximal inhibition (IC50) in assay [1] and in assay [2] was below 100 nM each time.
Consider `O=C(N[C@@H](CNC(=O)[C@@H]1CCCN(CCCc2ccc3c(n2)NCCC3)C1)C(=O)O)C1CCC(F)(F)CC1` [Compound 366], for which the IC50 in assay [1] and in assay [2] was below 100 nM each time.
In the case of `O=C(N[C@@H](CNC(=O)[C@@H]1CCCN(CCCc2ccc3c(n2)NCCC3)C1)C(=O)O)c1ccc(F)c(Cl)c1` [Compound 367], the IC50 in assay [1] and in assay [2] was below 100 nM throughout.
Take `O=C(N[C@@H](CNC(=O)[C@@H]1CCCN(CCCc2ccc3c(n2)NCCC3)C1)C(=O)O)c1ccc(Cl)c(Cl)c1` [Compound 368]: the IC50 in assay [1] and in assay [2] was below 100 nM each time.
With `O=C(N[C@@H](CNC(=O)[C@@H]1CCCN(CCCc2ccc3c(n2)NCCC3)C1)C(=O)O)c1ccc(C2CC2)cc1` [Compound 369], the IC50 in assay [1] and in assay [2] was below 100 nM throughout.
In the case of `O=C(N[C@@H](CNC(=O)[C@@H]1CCCN(CCCc2ccc3c(n2)NCCC3)C1)C(=O)O)c1ccccc1C1CC1` [Compound 371], the IC50 in assay [1] and in assay [2] was below 100 nM throughout.
As for `O=C(N[C@@H](CNC(=O)[C@@H]1CCCN(CCCc2ccc3c(n2)NCCC3)C1)C(=O)O)c1ccc(Cl)cc1` [Compound 372], the IC50 in assay [1] and in assay [2] was below 100 nM throughout.
As to `O=C(N[C@@H](CNC(=O)[C@@H]1CCCN(CCCc2ccc3c(n2)NCCC3)C1)C(=O)O)c1cccc(Cl)c1` [Compound 373], the IC50 in assay [1] and in assay [2] was below 100 nM each time.
In the case of `O=C(O)C[C@@H](NC(=O)[C@@H]1CCCN(CCCc2ccc3c(n2)NCCC3)C1)c1cnc2ccccc2n1` [Compound 374], the IC50 in assay [1] was 100 to 1000 nM; in assay [2] it was below 100 nM.
Take `O=C(NC[C@@H](Nc1ccc(-c2ccccc2)nc1)C(=O)O)[C@@H]1CCCN(CCCc2ccc3c(n2)NCCC3)C1` [Compound 375]: the 50% inhibitory concentration (IC50) in assay [1] and in assay [2] was below 100 nM each time.
As for `O=C(NC[C@@H](Nc1cncc(-c2ccccc2)c1)C(=O)O)[C@@H]1CCCN(CCCc2ccc3c(n2)NCCC3)C1` [Compound 376], the half-inhibitory concentration (IC50) in assay [1] and in assay [2] was below 100 nM each time.
With `O=C(O)CC(NC(=O)[C@@H]1CCCN(CCCc2ccc3c(n2)NCCC3)C1)c1cccc(O)c1` (some centres unmarked) [Compound 377], the IC50 in assay [1] and in assay [2] was below 100 nM each time.
As to `C[C@H]1CCN(CCCc2ccc3c(n2)NCCC3)C[C@H]1C(=O)N[C@@H](CC(=O)O)c1ccccc1` [Compound 378], the IC50 was above 1000 nM in assay [1] and 100 to 1000 nM in assay [2].
The corresponding values for `C[C@@H]1C[C@H](C(=O)N[C@@H](CC(=O)O)c2ccccc2)CN(CCCc2ccc3c(n2)NCCC3)C1` [Compound 379] are below 100 nM and below 100 nM.
`C[C@H]1C[C@H](C(=O)N[C@@H](CC(=O)O)c2ccccc2)CN(CCCc2ccc3c(n2)NCCC3)C1` [Compound 380]: the results for the 50% inhibitory concentration (IC50) in assay [1] and in assay [2] were 100 to 1000 nM and below 100 nM, respectively.
On to `O=C(O)[C@@H](CCO[C@@H]1CCCN(Cc2ccc3c(n2)NCCC3)C1)NC(=O)C12CCC(CC1)CC2` [Compound 381], for which the IC50 in assay [1] and in assay [2] was below 100 nM throughout.
Regarding `O=C(O)[C@@H](CO[C@@H]1CCCN(CCCc2ccc3c(n2)NCCC3)C1)NC(=O)C12CCC(CC1)CC2` [Compound 382], the half-maximal inhibitory concentration (IC50) in assay [1] and in assay [2] was above 1000 nM each time.
Regarding `O=C(O)[C@@H](CCO[C@@H]1CCCN(CCc2ccc3c(n2)NCCC3)C1)NC(=O)C12CCC(CC1)CC2` [Compound 383], the IC50 was below 100 nM in assay [1] and 100 to 1000 nM in assay [2].
Regarding `O=C(O)[C@@H](CCO[C@@H]1CCCN(CCCCc2ccc3c(n2)NCCC3)C1)NC(=O)C12CCC(CC1)CC2` [Compound 384], the IC50 in assay [1] and in assay [2] was above 1000 nM throughout.
`O=C(O)[C@H](CCO[C@@H]1CCCN(CCCCc2ccc3c(n2)NCCC3)C1)Nc1ncnc2ccccc12` [Compound 385]: the IC50 in assay [1] is above 1000 nM; in assay [2], 100 to 1000 nM.
Turning to `O=C(O)[C@H](CCO[C@@H]1CCCN(CCc2ccc3c(n2)NCCC3)C1)Nc1ncnc2ccccc12` [Compound 386], the IC50 in assay [1] and in assay [2] was above 1000 nM throughout.
Take `O=C(O)[C@H](CCO[C@@H]1CCCN(Cc2ccc3c(n2)NCCC3)C1)Nc1ncnc2ccccc12` [Compound 387]: the IC50 in assay [1] was below 100 nM; in assay [2], 100 to 1000 nM.
The corresponding values for `O=C(O)[C@H](CO[C@@H]1CCCN(CCCc2ccc3c(n2)NCCC3)C1)Nc1ncnc2ccccc12` [Compound 388] are 100 to 1000 nM and below 100 nM.
As to `O=C(O)[C@@H](CO[C@@H]1CCCN(Cc2ccc3c(n2)NCCC3)C1)c1ccccc1` [Compound 389], the IC50 in assay [1] and in assay [2] was above 1000 nM throughout.
With `O=C(O)C[C@@H](O[C@@H]1CCCN(Cc2ccc3c(n2)NCCC3)C1)c1ccccc1` [Compound 390], the IC50 in assay [1] and in assay [2] was above 1000 nM each time.
As for `O=C(O)C[C@@H](O[C@@H]1CCCN(CCCCc2ccc3c(n2)NCCC3)C1)c1ccccc1` [Compound 391], the IC50 in assay [1] and in assay [2] was above 1000 nM in each case.
Regarding `O=C(O)C[C@H](O[C@@H]1CCCN(Cc2ccc3c(n2)NCCC3)C1)c1ccccc1` [Compound 392], the half-inhibitory concentration (IC50) in assay [1] and in assay [2] was above 1000 nM throughout.
Turning to `O=C(O)C[C@H](O[C@@H]1CCCN(CCCCc2ccc3c(n2)NCCC3)C1)c1ccccc1` [Compound 393], the IC50 in assay [1] and in assay [2] was above 1000 nM in each case.
`O=C(O)[C@@H](CO[C@@H]1CCCN(CCCCc2ccc3c(n2)NCCC3)C1)c1ccccc1` [Compound 394]: the IC50 in assay [1] and in assay [2] was above 1000 nM in each case.
As to `O=C(O)[C@H](CO[C@@H]1CCCN(CCCCc2ccc3c(n2)NCCC3)C1)c1ccccc1` [Compound 395], the IC50 in assay [1] and in assay [2] was above 1000 nM each time.
In the case of `O=C(O)[C@H](CO[C@@H]1CCCN(Cc2ccc3c(n2)NCCC3)C1)c1ccccc1` [Compound 396], the IC50 in assay [1] and in assay [2] was above 1000 nM throughout.
